Source: ChEMBL document CHEMBL1131639, “Structural analysis of thrombin complexed with potent inhibitors incorporating a phenyl group as a peptide mimetic and aminopyridines as guanidine substitutes” (J Med Chem, 1998)
One block for each molecule: values may come before it. Where a SMILES comes first, the peptide text is derived from it.

Columns and labels:
[1] = molecular target: T1, Prothrombin (Homo sapiens, UniProt P00734); assay: (§1) Compound was evaluated for the inhibition of thrombin
[2] = molecular target: Integrin alpha-IIb/beta-3 (Homo sapiens, UniProt P05106+P08514); assay: Compound was evaluated for inhibition against Fibrinogen Receptor.; type: protein-complex assay
Integrin alpha-IIb/beta-3, sequence (P05106 27-788 limits assumed): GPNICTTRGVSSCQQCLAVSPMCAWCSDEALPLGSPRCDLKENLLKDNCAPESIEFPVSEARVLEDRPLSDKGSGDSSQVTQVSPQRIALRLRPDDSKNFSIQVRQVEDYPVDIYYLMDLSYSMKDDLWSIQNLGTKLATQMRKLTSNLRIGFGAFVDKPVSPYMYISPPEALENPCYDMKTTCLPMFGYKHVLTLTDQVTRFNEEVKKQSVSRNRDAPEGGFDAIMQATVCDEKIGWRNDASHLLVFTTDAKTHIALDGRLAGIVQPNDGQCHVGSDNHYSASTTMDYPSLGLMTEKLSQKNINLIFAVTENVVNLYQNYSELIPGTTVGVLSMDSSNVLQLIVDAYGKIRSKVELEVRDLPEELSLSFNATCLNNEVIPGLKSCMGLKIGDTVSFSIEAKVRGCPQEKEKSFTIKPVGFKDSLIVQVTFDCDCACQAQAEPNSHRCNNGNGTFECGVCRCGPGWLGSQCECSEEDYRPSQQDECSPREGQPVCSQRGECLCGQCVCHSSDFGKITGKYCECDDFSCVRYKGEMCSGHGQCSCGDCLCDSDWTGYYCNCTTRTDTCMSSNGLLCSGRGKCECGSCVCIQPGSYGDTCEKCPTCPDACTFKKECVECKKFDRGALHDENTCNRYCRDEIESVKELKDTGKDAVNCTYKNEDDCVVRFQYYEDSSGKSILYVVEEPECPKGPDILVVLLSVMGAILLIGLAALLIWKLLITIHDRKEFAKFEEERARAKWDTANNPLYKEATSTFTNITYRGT
Integrin alpha-IIb/beta-3, sequence (P08514 32-887 limits assumed): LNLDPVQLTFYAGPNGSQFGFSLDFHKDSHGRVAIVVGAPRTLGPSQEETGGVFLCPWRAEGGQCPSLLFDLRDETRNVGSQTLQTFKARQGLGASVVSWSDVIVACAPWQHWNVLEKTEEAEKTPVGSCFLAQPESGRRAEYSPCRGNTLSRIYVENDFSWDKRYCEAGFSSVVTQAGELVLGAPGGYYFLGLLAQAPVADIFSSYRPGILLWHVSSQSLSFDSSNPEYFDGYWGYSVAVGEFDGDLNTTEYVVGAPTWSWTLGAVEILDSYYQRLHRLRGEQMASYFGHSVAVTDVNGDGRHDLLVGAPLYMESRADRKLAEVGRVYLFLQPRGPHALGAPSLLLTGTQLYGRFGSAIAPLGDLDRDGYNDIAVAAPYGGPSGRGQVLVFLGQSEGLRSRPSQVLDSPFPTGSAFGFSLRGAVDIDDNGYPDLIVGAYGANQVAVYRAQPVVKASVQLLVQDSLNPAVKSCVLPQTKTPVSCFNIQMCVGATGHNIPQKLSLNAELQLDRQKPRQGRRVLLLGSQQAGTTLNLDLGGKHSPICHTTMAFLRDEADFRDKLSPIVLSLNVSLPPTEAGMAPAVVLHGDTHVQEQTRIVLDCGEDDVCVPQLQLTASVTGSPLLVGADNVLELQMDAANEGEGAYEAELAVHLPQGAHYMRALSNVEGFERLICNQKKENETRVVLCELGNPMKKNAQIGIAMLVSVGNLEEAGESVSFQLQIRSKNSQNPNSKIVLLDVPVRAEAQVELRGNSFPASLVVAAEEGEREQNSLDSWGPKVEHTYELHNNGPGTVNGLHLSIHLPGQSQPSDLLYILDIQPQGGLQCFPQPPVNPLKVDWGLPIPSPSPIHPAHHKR
Integrin alpha-IIb/beta-3, sequence (P08514 891-1039 limits assumed): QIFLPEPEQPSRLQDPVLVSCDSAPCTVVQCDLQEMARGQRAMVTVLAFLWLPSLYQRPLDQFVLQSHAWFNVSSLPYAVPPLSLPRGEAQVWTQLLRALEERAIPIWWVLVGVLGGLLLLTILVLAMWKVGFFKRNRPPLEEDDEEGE

[3] = molecular target: T1, Prothrombin; assay: as §1; remark: listed apart in the source

Ki [1]: 180 nM
SMILES: NC(N)=NCCCCNC(=O)[C@@H]1CCCN1C(=O)[C@H](N)Cc1ccccc1 (HELM PEPTIDE1{[dF].P.[N=C(N)NCCCCN[*:1]]}$$$$V2.0)

IC50 [2]: 1700 nM
SMILES: NC(N)=NCCCC[C@H](N)C(=O)NCC(=O)N[C@@H](CC(=O)O)C(=O)N[C@@H](Cc1cc2ccccc2[nH]1)C(=O)O (HELM PEPTIDE1{[N=C(N)NCCCC[C@H](N)C(=O)[*:2]].G.D.[O=C(O)[C@H](Cc1cc2ccccc2[nH]1)N[*:1]]}$$$$V2.0)

Ki0 [3]: 360 nM
SMILES: CC1CCN(C(=O)[C@H](CCCNc2ccc(N)cn2)NS(=O)(=O)c2cccc3c(N(C)C)cccc23)CC1
